Patent publication US8642343B2, “Blood separating agent and blood collection container” (Sekisui Medical Co., Ltd., priority 2010, dated 2014)

Assay: Solubility of polymerization inhibitors at 25° C.
Settings: in water

Solubility (25° C.) | Solubility (25° C.) (listed as hydroquinone) [g/100 ml] | SMILES
4 g/100 ml | – | COc1ccc(O)cc1 [Material 1, p-methoxyphenol]
0.002 g/100 ml | – | CC(C)(C)c1cc(O)c(C(C)(C)C)cc1O [Material 2, 2,5-di-t-butylhydroquinone]
7 g/100 mL g/100 ml | 7 | Oc1ccc(O)cc1 [Material 4, hydroquinone, reference compound]

SMILES | Solubility (25° C.) | Solubility (25° C.) (listed as hydroquinone) [g/100 ml]
c1ccc2c(c1)Nc1ccccc1S2 [Material 3, phenothiazine] | insoluble | –
